Key:
SNK-6 (IL-2 2.5 ng/mL) [1] = assay: percent inhibition of viability; higher = more inhibition; conditions: 72 h
NKL (IL-2 2.5 ng/mL) [2] = assay: as above; conditions: 72 h
YT (IL-2 2.5 ng/mL) [3] = assay: as above; conditions: 72 h
[4] = tested on: normal primary NK cells, pool 1 (3 donors), resting (IL-2 0 ng/mL); assay: as above; conditions: 72 h
NK-YS (IL-2 2.5 ng/mL) [5] = assay: as above; conditions: 72 h
KHYG-1 (IL-2 2.5 ng/mL) [6] = assay: as above; conditions: 72 h
NK-92 (IL-2 2.5 ng/mL) [7] = assay: as above; conditions: 72 h
KAI3 (IL-2 2.5 ng/mL) [8] = assay: as above; conditions: 72 h
[9] = tested on: normal primary NK cells, pool 2 (3 donors) (IL-2 2.5 ng/mL); assay: as above; conditions: 72 h
[10] = tested on: normal primary NK cells, pool 3 (3 donors) (IL-2 2.5 ng/mL); assay: as above; conditions: 72 h
DERL-7 (IL-2 2.5 ng/mL) [11] = assay: as above; conditions: 72 h
[12] = tested on: normal primary NK cells, pool 1 (3 donors) (IL-2 2.5 ng/mL); assay: as above; conditions: 72 h
IMC-1 (IL-2 20 ng/mL) [13] = assay: as above; conditions: 72 h
[14] = tested on: normal NK cells expanded with K562-aAPC; assay: drug sensitivity score (DSS) (DSS units); higher = more sensitive; extreme values may be limits of the assay; conditions: 72 h; IL-2 2.5 ng/mL
Experimental: (§1)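 Drug sensitivity and resistance testing on K562-aAPC-expanded normal NK cells: 5 concentrations (10-fold steps over a 10,000-fold range), 72 h at 37 °C, viability by CellTiter-Glo normalised to DMSO and benzethonium chloride controls; DSS from the fitted curve.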

[15] = tested on: normal NK cells expanded with K562-aAPC; assay: percent inhibition of viability; higher = more inhibition; conditions: 72 h, IL-2 2.5 ng/mL
Experimental: as §1

SNK-6 (IL-2 2.5 ng/mL) [16] = assay: drug sensitivity score (DSS) (DSS units); higher = more sensitive; extreme values may be limits of the assay; conditions: 72 h
NKL (IL-2 2.5 ng/mL) [17] = assay: as above; conditions: 72 h
YT (IL-2 2.5 ng/mL) [18] = assay: as above; conditions: 72 h
[19] = tested on: normal primary NK cells, pool 1 (3 donors), resting (IL-2 0 ng/mL); assay: as above; conditions: 72 h
NK-YS (IL-2 2.5 ng/mL) [20] = assay: as above; conditions: 72 h
KHYG-1 (IL-2 2.5 ng/mL) [21] = assay: as above; conditions: 72 h
NK-92 (IL-2 2.5 ng/mL) [22] = assay: as above; conditions: 72 h
KAI3 (IL-2 2.5 ng/mL) [23] = assay: as above; conditions: 72 h
[24] = tested on: normal primary NK cells, pool 2 (3 donors) (IL-2 2.5 ng/mL); assay: as above; conditions: 72 h
[25] = tested on: normal primary NK cells, pool 3 (3 donors) (IL-2 2.5 ng/mL); assay: as above; conditions: 72 h
DERL-7 (IL-2 2.5 ng/mL) [26] = assay: as above; conditions: 72 h
[27] = tested on: normal primary NK cells, pool 1 (3 donors) (IL-2 2.5 ng/mL); assay: as above; conditions: 72 h
IMC-1 (IL-2 20 ng/mL) [28] = assay: as above; conditions: 72 h

O=C(c1ccc(/C=C/c2n[nH]c3ccccc23)cc1)N1CCNCC1 [KW-2449] (max concentration tested 2500 nM)
percent inhibition of viability [%]
Conditions | 0.25 nM | 2.5 nM | 25 nM | 250 nM | 2500 nM
DERL-7 (IL-2 2.5 ng/mL) [11] | -3.07 | -3.42 | -0.35 | -5.82 | 52
IMC-1 (IL-2 20 ng/mL) [13] | -4.33 | -2.55 | -3.12 | -4.5 | -8.66
KAI3 (IL-2 2.5 ng/mL) [8] | -7.2 | -3.33 | -4.86 | -5.15 | 12.8
KHYG-1 (IL-2 2.5 ng/mL) [6] | -4.37 | -3.8 | -7.48 | -0.63 | 63.4
NK-92 (IL-2 2.5 ng/mL) [7] | -17.7 | -18 | -20.5 | -12.6 | 18.9
NK-YS (IL-2 2.5 ng/mL) [5] | -5.66 | -7.24 | -6.03 | 0.88 | 42.9
NKL (IL-2 2.5 ng/mL) [2] | -16.7 | -15.7 | -8.73 | -17 | 8.68
SNK-6 (IL-2 2.5 ng/mL) [1] | 11.8 | 9.47 | 14.2 | 3.56 | 67.5
YT (IL-2 2.5 ng/mL) [3] | 0.95 | 1.96 | -2.99 | -1.32 | 9
[4] | -12.6 | 0.69 | -21.6 | -1.76 | -0.59
[9] | 0.9 | -1.16 | -5.56 | -9.38 | 13.4
[10] | -10.8 | -6.97 | -9.8 | -18.2 | -0.01
[12] | 0.56 | -11.2 | -7.09 | -3.29 | 23.3
[15] | 1.55 | -7.82 | -4.83 | -5.26 | 33

Conditions | drug sensitivity score
DERL-7 (IL-2 2.5 ng/mL) [26] | 2.35
IMC-1 (IL-2 20 ng/mL) [28] | 0.89
KAI3 (IL-2 2.5 ng/mL) [23] | 0.03
KHYG-1 (IL-2 2.5 ng/mL) [21] | 3.4
NK-92 (IL-2 2.5 ng/mL) [22] | 0.25
NK-YS (IL-2 2.5 ng/mL) [20] | 2.28
NKL (IL-2 2.5 ng/mL) [17] | 0
SNK-6 (IL-2 2.5 ng/mL) [16] | 4.22
YT (IL-2 2.5 ng/mL) [18] | 0
[14] | 1.2
[19] | 0
[24] | 0.03
[25] | 0.89
[27] | 0.65

Cn1cc(C2=Nc3cc(NC(=O)C(N)C4CCCCC4)cc4c3C2=CNNC4=O)cn1 (stereo not drawn) (max concentration tested 10000 nM)
percent inhibition of viability [%]
Conditions | 1 nM | 10 nM | 100 nM | 1000 nM | 10000 nM
DERL-7 (IL-2 2.5 ng/mL) [11] | -5.54 | -1.5 | 4.6 | 48.3 | 97.6
IMC-1 (IL-2 20 ng/mL) [13] | -2.84 | -1.7 | 7.25 | 99.8 | 101
KAI3 (IL-2 2.5 ng/mL) [8] | -1.93 | -2.44 | 21.2 | 93 | 103
KHYG-1 (IL-2 2.5 ng/mL) [6] | 18.4 | 5.75 | 32.3 | 104 | 107
NK-92 (IL-2 2.5 ng/mL) [7] | 3.17 | -3.7 | 17.4 | 65.2 | 107
NK-YS (IL-2 2.5 ng/mL) [5] | -0.41 | 0.42 | 9.21 | 75.4 | 97.2
NKL (IL-2 2.5 ng/mL) [2] | -1.81 | 2.84 | -0.69 | 61.7 | 82.7
SNK-6 (IL-2 2.5 ng/mL) [1] | 5.64 | 12.4 | 25.4 | 80.5 | 97.2
YT (IL-2 2.5 ng/mL) [3] | 1.41 | 1.74 | 10.1 | 72.6 | 104
[4] | 1.23 | -6.26 | -15.6 | -23.2 | 9.49
[9] | -14.2 | -7.44 | -6.63 | 8.32 | 85.8
[10] | -13 | -2.42 | 9.48 | 11.7 | 76.2
[12] | -1.65 | -6.59 | -10.1 | -4.12 | 59.9
[15] | -1.76 | 0.06 | 11.6 | 53.4 | 73.3

Conditions | drug sensitivity score
DERL-7 (IL-2 2.5 ng/mL) [26] | 11.1
IMC-1 (IL-2 20 ng/mL) [28] | 19.1
KAI3 (IL-2 2.5 ng/mL) [23] | 19.7
KHYG-1 (IL-2 2.5 ng/mL) [21] | 22.6
NK-92 (IL-2 2.5 ng/mL) [22] | 14.7
NK-YS (IL-2 2.5 ng/mL) [20] | 15.2
NKL (IL-2 2.5 ng/mL) [17] | 11.7
SNK-6 (IL-2 2.5 ng/mL) [16] | 18
YT (IL-2 2.5 ng/mL) [18] | 15
[14] | 11.4
[19] | 0
[24] | 6.1
[25] | 6.18
[27] | 2.92
